Measurements as given in patent US10213451B2, “Methods and compounds for modulating the secretion or expression of adhesion proteins or angiopoietins of cells” (PACIFIC ARROW LIMITED, priority 2004, dated 2019).

Experiments:
Type in all cases: cell-based, human
[1] = tested on: fibronectin expression in ES2 cells; assay: Microarray gene expression, Table 1
Procedure: (§1) Y/D is the ratio (in folds) of gene expression in cells treated with compound Y as compared with those of the no drug control (D),
(§2) YM/D is the ratio of gene expression in cells treated with compound YM (ACH-Y, Y without sugar moiety) compared with those of the no drug control (D)
(§3) Cell culture and drug-treatment.: ES2 cells were seeded in a T-25 flask with 4.5 million cells per flask for 24 hours. Cell culture was replaced with fresh medium with xanifolia-Y (Y) or DMSO no drug control (D) for 24 hours. Cells were then harvested for RNA isolation. Three experiments were done.
(§4) RNA extraction, labeling, hybridization, and data analysis. RNA was extracted from tumor cells using the Qiagen RNeasy Kit. RNA quality and quantity was checked by the Agilent BioAnalyzer and the NanoDrop® ND-1000 spectrophotometer respectively before further manipulation. The first and second cDNA strands were synthesized from 20 ng of total RNA using the Affymetrix T7 oligo(dT) primer protocol and kit for the two-cycle amplification. To produce amplified biotin-labeled-cRNA, the cDNA was […] by in vitro transcription using the MegaScript kit from Ambion. 15.0 μg of the labeled cRNA was fragmented and re-checked for concentration using the NanoDrop® ND-1000 spectrophotometer. A hybridization cocktail containing Affymetrix spike-in controls and fragmented labeled cRNA was loaded onto the Human U133 Plus 2.0 GeneChip® oligonucleotide array. The Affymetrix array (Affymetrix, Inc. Santa Clara, Calif.) is comprised of over 1,300,000 unique oligonucleotide features that represent greater than 38,500 well-substantiated human genes. The array was hybridized for 16 hours at 45° C. with rotation at 60 rpm then washed and stained with a strepavidin, R-phycoerythrin conjugate stain on the Affymetrix Fluidicis Station 450. Signal amplification was done using biotinylated antistreptavidin. The arrays were scanned using the GeneChip® 3000 confocal laser scanner with autoloader. The images were analyzed and quality control metrics recorded using Affymetrix GCOS software version 1.4. Lastly, the expression value for each gene was calculated using dChip PM-only model based or Plier algorithm.
(§5) Pairwise comparisons were made as follows: Treated vs. Control (Y vs. D), Modified Drug vs Control (YM/ACY-H vs. D) and Treated vs. Modified Drug (Y vs. YM/ACH-Y) Cel files analyzed using the Bioconductor package of R Statistical programming. Limma analysis generated a reasonable number of changing genes between the samples.
(§6) The raw data in the .CEL files were normalized by the GCRMA method (robust multi-array analysis). It is implemented in Bioconductor (http://www.bioconductor.org/). The raw signal intensity data were normalized, background corrected and summarized based on certain statistical models, and an expression value, in log 2-scale, is obtained per chip per probe set. Then the null hypothesis was tested that there's no significant changes in gene expression between the treatment pairs. This was done by LIMMA and is also implemented in Bioconductor. It uses empirical Bayes method to estimate the variance in gene expression. One comparison was made, namely, High Grade vs. Low Grade. The raw p-values were adjusted by the Benjamnin-Hochberg method for false discovery rate (FDR) control. All data sets contained a significant number of genes with a p-value less than 0.05, which is that the probability that a gene is NOT differential expressed (false positive) is 1:20.

[2] = tested on: Fibronectin secretion from skin SK-Mel-5 cells; assay: Fibronectin secretion (Western blot), SK-MEL-5 cells; conditions: Homo sapiens
[3] = tested on: RAB3B, member RAS oncogene family protein expression in ES2 cells; assay: Microarray gene expression, Table 17
Procedure: as §1, §2, §3, §4, §5, §6

[4] = tested on: laminin expression in ES2 cells; assay: Microarray gene expression, Table 3
Procedure: as §1, §2, §3, §4, §5, §6

[5] = tested on: tenascin-C expression in ES2 cells; assay: Microarray gene expression, Table 9; conditions: probe 201645_at
Procedure: as §1, §2, §3
RNA extraction, labeling, hybridization, and data analysis. RNA was extracted from tumor cells using the Qiagen RNeasy Kit. RNA quality and quantity was checked by the Agilent BioAnalyzer and the NanoDrop® ND-1000 spectrophotometer respectively before further manipulation. […] The images were analyzed and quality control metrics recorded using Affymetrix GCOS software version 1.4. Lastly, the expression value for each gene was calculated using dChip PM-only model based or Plier algorithm.
Pairwise comparisons were made as follows: Treated vs. Control (Y vs. D), Modified Drug vs Control (YM/ACY-H vs. D) and Treated vs. Modified Drug (Y vs. YM/ACH-Y) Cel files analyzed using the Bioconductor package of R Statistical programming. […]

[6] = tested on: angiopoietin expression in ES2 cells; assay: Microarray gene expression, Table 12
Procedure: as §1, §2, §3, §4, §5, §6

[7] = tested on: collagen expression in ES2 cells; assay: Microarray gene expression, Table 5
Procedure: as §1, §2, §3, §4, §5, §6

**Q.** What does the source list for `C/C=C(/C)C(=O)O[C@H]1[C@H](OC(=O)/C(C)=C\C)[C@@]2(CO)C(CC1(C)C)C1=CCC3[C@@]4(C)CC[C@H](O[C@@H]5OC(C(=O)O)[C@@H](O)C(O[C@@H]6O[C@@H](CO)C(O)C6O)C5O[C@@H]5OC(CO)[C@H](O)C(O)C5O)C(C)(C)C4CC[C@@]3(C)[C@]1(C)[C@@H](O)[C@H]2O` (stereo partly drawn) [Xanifolia-Y, 3-O-[β-D-galactopyranosyl (1→2)]-α-L-arabinofuranosy (1→3)-β-D-glucuronopyranosyl-21,22-O-diangeloyl-3β, 15α, 16α, 21β, 22α, 28-hexahydroxyolean-12-ene]?
**A.** FN1 fibronectin 1, gene expression ratio to no drug control (D) ([1]; probe 210495_x_at): −2.5 folds; FN1 fibronectin 1, gene expression ratio to no drug control (D) ([1]; probe 211719_x_at): −2.6 folds; FN1 fibronectin 1, gene expression ratio to no drug control (D) ([1]; probe 212464_s_at): −2.7 folds; FN1 fibronectin 1, gene expression ratio to no drug control (D) ([1]; probe 216442_x_at): −2.6 folds; inhibition at 10 µg/mL ([2]; 10 ug/ml): 11%; inhibition at 20 µg/mL ([2]; 20 ug/ml): 40 to 57%; RAB3B, member RAS oncogene family, gene expression ratio to no drug control (D) ([3]; probe 205924_at): −1.7 folds; RAB3B, member RAS oncogene family, gene expression ratio to no drug control (D) ([3]; probe 205925_s_at): −1.2 folds; RAB3B, member RAS oncogene family, gene expression ratio to no drug control (D) ([3]; probe 227123_at): −1.6 folds; RAB3B, member RAS oncogene family, gene expression ratio to no drug control (D) ([3]; probe 242629_at): −3.5 folds; LAMC1, gene expression ratio to no drug control (D) ([4]; probe 200770_s_at): −1.9 folds; LAMB1 laminin, beta 1, gene expression ratio to no drug control (D) ([4]; probe 201505_at): −1.6 folds; LAMA4 laminin, alpha 4, gene expression ratio to no drug control (D) ([4]; probe 202202_s_at): −2.2 folds; LAMB1, gene expression ratio to no drug control (D) ([4]; probe 211651_s_at): −1.6 folds; LAMB2, gene expression ratio to no drug control (D) ([4]; probe 216264_s_at): −2.0 folds; TNC Tenascin C (hexabrachion), gene expression ratio to no drug control (D) [5]: −3.2 folds; ANGPT2 angiopoietin 2, gene expression ratio to no drug control (D) ([6]; probe 205572_at): 3.5 folds; ANGPT1 angiopoietin 1, gene expression ratio to no drug control (D) ([6]; probe 205609_at): −1.1 folds; ANGPT2 angiopoietin 2, gene expression ratio to no drug control (D) ([6]; probe 211148_s_at): 2.5 folds; ANGPTL4 angiopoietin-like 4, gene expression ratio to no drug control (D) ([6]; probe 221009_s_at): −1.2 folds; ANGPTL1 Angiopoietin-like 1, gene expression ratio to no drug control (D) ([6]; probe 227533_at): −1.5 folds; P4HB procollagen-proline, 2-oxoglutarate 4-dioxygenase, beta polypeptide, gene expression ratio to no drug control (D) ([7]; probe 200654_at): −1.6 folds; P4HB procollagen-proline, 2-oxoglutarate 4-dioxygenase, beta polypeptide, gene expression ratio to no drug control (D) ([7]; probe 200656_s_at): −1.8 folds; PLOD1 procollagen-lysine 1,2-oxoglutarate 5-dioxygenase 1, gene expression ratio to no drug control (D) ([7]; probe 200827_at): −1.7 folds; COL6A3 collagen, type VI, alpha 3, gene expression ratio to no drug control (D) ([7]; probe 201438_at): −2.4 folds; PLOD3 procollagen-lysine, 2-oxoglutarate 5-dioxygenase 3, gene expression ratio to no drug control (D) ([7]; probe 202185_at): −1.3 folds; COL1A1 collagen, type I, alpha 1, gene expression ratio to no drug control (D) ([7]; probe 202311_s_at): −1.6 folds; PCOLCE procollagen C-endopeptidase enhancer, gene expression ratio to no drug control (D) ([7]; probe 202465_at): −1.3 folds; PLOD2 procollagen-lysine, 2-oxoglutarate 5-dioxygenase 2, gene expression ratio to no drug control (D) ([7]; probe 202619_s_at): −1.7 folds; PLOD2 procollagen-lysine, 2-oxoglutarate 5-dioxygenase 2, gene expression ratio to no drug control (D) ([7]; probe 202620_s_at): −1.4 folds; P4HA2 procollagen-proline, 2-oxoglutarate 4-dioxygenase, alpha polypeptide II, gene expression ratio to no drug control (D) ([7]; probe 202733_at): −1.4 folds; COL5A1 collagen, type V, alpha 1, gene expression ratio to no drug control (D) ([7]; probe 203325_s_at): −1.7 folds; P4HA1 procollagen-proline, 2-oxoglutarate 4-dioxygenase, alpha polypeptide I, gene expression ratio to no drug control (D) ([7]; probe 207543_s_at): −2.0 folds; COL13A1 collagen, type XIII, alpha 1, gene expression ratio to no drug control (D) ([7]; probe 208535_x_at): −1.4 folds; COL18A1 collagen, type XVIII, alpha 1, gene expression ratio to no drug control (D) ([7]; probe 209081_s_at): −1.7 folds; COL13A1 collagen, type XIII, alpha 1, gene expression ratio to no drug control (D) ([7]; probe 211343_s_at): −1.9 folds; COL13A1 collagen, type XIII, alpha 1, gene expression ratio to no drug control (D) ([7]; probe 211809_x_at): −2.0 folds; COL4A2 collagen, type IV, alpha 2, gene expression ratio to no drug control (D) ([7]; probe 211966_at): −1.8 folds; COL4A1 collagen, type IV, alpha 1, gene expression ratio to no drug control (D) ([7]; probe 211981_at): −1.6 folds; COL6A1 collagen, type VI, alpha 1, gene expression ratio to no drug control (D) ([7]; probe 212091_s_at): −1.6 folds; COL5A1 collagen, type V, alpha 1, gene expression ratio to no drug control (D) ([7]; probe 212489_at): −1.5 folds; COL4A5 collagen, type IV, alpha 5 (Alport syndrome), gene expression ratio to no drug control (D) ([7]; probe 213110_s_at): −1.6 folds; COL6A2 collagen, type VI, alpha 2, gene expression ratio to no drug control (D) ([7]; probe 213290_at): −1.6 folds; COL4A6 collagen, type IV, alpha 6, gene expression ratio to no drug control (D) ([7]; probe 213992_at): −2.0 folds; COL10A1 collagen, type X, alpha 1, gene expression ratio to no drug control (D) ([7]; probe 217428_s_at): −3.0 folds; COL5A2 collagen, type V, alpha 2, gene expression ratio to no drug control (D) ([7]; probe 221729_at): −1.3 folds; COL5A2 collagen, type V, alpha 2, gene expression ratio to no drug control (D) ([7]; probe 221730_at): −1.6 folds; COL12A1 collagen, type XII, alpha 1, gene expression ratio to no drug control (D) ([7]; probe 231766_s_at): −2.8 folds; CCBE1 collagen and calcium binding EGF domains 1, gene expression ratio to no drug control (D) ([7]; probe 242324_x_at): −1.3 folds; COL5A1 collagen, type V, alpha 1, gene expression ratio to no drug control (D) ([7]; probe 1556138_a_at): −2.2 folds; P4HA2 procollagen-proline, 2-oxoglutarate 4-dioxygenase, alpha polypeptide II, gene expression ratio to no drug control (D) ([7]; probe 1568611_at): −1.3 folds; expression ratio to the control, collagen ([7]; span over probes of Table 5): −1.3 to −3.0 folds
